Results published in US20230012374A1, “PROCESS FOR PRODUCING HERBICIDE AND INTERMEDIATE THEREOF” (KUMIAI CHEMICAL INDUSTRY CO., LTD., priority 2019, published 2023).

Experiment: Bulk specific gravity of pyroxasulfone crystals
Assay type: physicochemical
Details: crystal of pyroxasulfone

Cn1nc(C(F)(F)F)c(CS(=O)(=O)C2=NOC(C)(C)C2)c1OC(F)F [Comparative Example 3-1, 3-[(5-difluoromethoxy-1-methyl-3-trifluoromethylpyrazol-4-yl)methylsulfonyl]-4,5-dihydro-5,5-dimethylisoxazole]
bulk specific gravity: 0.53 g/mL

Cn1nc(C(F)(F)F)c(CS(=O)(=O)C2=NOC(C)(C)C2)c1OC(F)F [Example 3-1, 3-[(5-difluoromethoxy-1-methyl-3-trifluoromethylpyrazol-4-yl)methylsulfonyl]-4,5-dihydro-5,5-dimethylisoxazole]
bulk specific gravity: 1.04 g/mL
